# From PMC11352469, “Comprehensive Analysis of Kisspeptin Signaling: Effects on Cellular Dynamics in Cervical Cancer” (Biomolecules, 2024)
# Residues, ends and D or L forms follow the SMILES beside them.
# Tests used:
# HeLa cells [1] = assay: Cytotoxicity MTT assay, HeLa; type: cell-based, human; conditions: 48 h
# Description: (§1) Human cervical adenocarcinoma (HeLa) cells (cat# CRM-CCL-2) were obtained from the American Type Culture Collection (ATCC, Manassas, VA, USA). Human breast adenocarcinoma (MCF7) cells, Human prostate adenocarcinoma (PC3) cells, Human gastric adenocarcinoma (AGS) cells and Human Embryonic Kidney cells (HEK293T) were kindly provided by the Universidad Industrial de Santander. HeLa, MCF7, and HEK293T cells were cultured in DMEM medium supplemented with 10% FBS (fetal bovine serum), 1% penicillin/streptomycin. PC3 and AGS cells were cultured in RPMI medium supplemented with 10% FBS, 1% penicillin/streptomycin. All cells were maintained at 37 °C and 5% CO2.
# (§2) 15,000 cells per well were plated in 96-well plates (Greiner, Fisher Scientific, Waltham, MA, USA) using a fully complemented medium, and incubated at 37 °C. Following a 24 h period, cells underwent serum starvation before being treated with KP10 and its analogs at concentrations of 10, 100, 250, and 500 nM for 48 h. Subsequently, each well received 100 µL of MTT solution (0.5 mg/mL), and the plates were incubated at 37 °C for 3 h. After adding the MTT solvent and further incubation for 15 min, the resultant absorbance was measured at 590 nm using a BioTech RT-2100C microplate reader. Data analysis was performed using Prism 8.0 software (GraphPad).
# PC3 cells [2] = assay: Cytotoxicity MTT assay, PC3; type: cell-based, human; conditions: 48 h
# Description: as §1, §2
# HEK293T cells = assay: Cytotoxicity MTT assay, HEK293T; type: cell-based, human; conditions: 48 h
# Description: as §1, §2
# HeLa cells [3] = assay: In vitro wound healing assay, HeLa; type: cell-based, human; conditions: particularly at 48 and 72 h
# Description: (§3) Cells (3 × 10^5 cells/well) were seeded in 24-well plates for 24 h. Then, a sterile pipette tip of 20–200 μL was held vertically to create a cross-shaped scratch in each well. The detached cells were carefully removed by washing with 500 μL PBS and shaking at 500 rpm for 5 min. Then, 500 μL of medium containing the peptides to be tested was added to each well and incubated for 72 h. Prior taking each image, the plate was washed with 500 μL of PBS and gently shaken for 30 s. Then, 500 μL of medium containing the corresponding peptides was added to each well again and images were taken at 24 h intervals using a Primovert microscope at 4× magnification and 1/3700 s exposure time. Wound opening areas were obtained using Prism 8.0 software (GraphPad).
# MCF7 cells [4] = assay: In vitro wound healing assay, MCF7; type: cell-based, human; conditions: MCF7, particularly at 48 and 72 h
# Description: as §3
# PC3 cells [5] = assay: In vitro wound healing assay, PC3; type: cell-based, human; conditions: PC3, difference to control less marked
# Description: as §3
# AGS cells = assay: In vitro wound healing assay, AGS; type: cell-based, human; conditions: difference to control less marked
# Description: as §3
# kisspeptin receptor [6] = target: T1, kisspeptin receptor (Homo sapiens, UniProt Q969F8); assay: BRET assay, Gq pathway; type: cell-based; design: expressed in transfected cells; host or cells: HeLa cells, transient transfection with PEI; conditions: for EC50 / Emax: HeLa cells, Gq pathway; for Emax: KP10 = 100%
# Excerpt: (§4) The Bioluminescence Resonance Energy Transfer (BRET) assay was developed as described before. Briefly, HeLa cells were transiently transfected with these plasmids encoding for the GPCR, Gα subunit, the G protein effectors tagged with the BRET donor (RlucII), and the plasma membrane anchor (the CAAX motif from KRas, which includes a prenylation and a polybasic domain) fused to the BRET acceptor rGFP using Polietilendiimine (PEI) as described in Avet et al.. Fourty-eight hours post-transfection, cells were incubated with the coelenterazine substrate for Renilla luciferase Prolume Purple, stimulated with kisspeptin receptor agonists for 10 min and BRET signals were measured using a dual-filter luminometer (SPARK, Tecan Life Sciences, Männedorf, Switzerland). BRET ratios were calculated by dividing the acceptor emission by the donor emission, providing a quantitative measure for […]. Data were analyzed using Prism 8.0 (GraphPad) to determine interaction dynamics under various experimental conditions.
# kisspeptin receptor [7] = target: T1, kisspeptin receptor; assay: BRET assay, G11 pathway; type: cell-based; design: expressed in transfected cells; host or cells: HeLa cells, transient transfection with PEI; conditions: for Emax / EC50: HeLa cells, G11 pathway; for Emax: KP10 = 100%; for EC50: read-out: pEC50 G11 (converted)
# Excerpt: as §4
# kisspeptin receptor [8] = target: T1, kisspeptin receptor; assay: BRET assay, G14 pathway; type: cell-based; design: expressed in transfected cells; host or cells: HeLa cells, transient transfection with PEI; conditions: for Emax / EC50: HeLa cells, G14 pathway; for Emax: KP10 = 100%; for EC50: read-out: pEC50 G14 (converted)
# Excerpt: as §4
# kisspeptin receptor [9] = target: T1, kisspeptin receptor; assay: BRET assay, G15 pathway; type: cell-based; design: expressed in transfected cells; host or cells: HeLa cells, transient transfection with PEI; conditions: for Emax / EC50: HeLa cells, G15 pathway; for Emax: KP10 = 100%; for EC50: read-out: pEC50 G15 (converted)
# Excerpt: as §4
# kisspeptin receptor [10] = target: T1, kisspeptin receptor; assay: BRET assay, Gz pathway; type: cell-based; design: expressed in transfected cells; host or cells: HeLa cells, transient transfection with PEI; conditions: for Emax / EC50 / Δ(logτ/KA) bias factor, Gαz pathway: HeLa cells; for Emax / EC50: Gz pathway; for Emax: KP10 = 100%; for Δ(logτ/KA) bias factor, Gαz pathway: operational model, KP10 as reference
# Excerpt: as §4, with “conditions. The bias factor for the kisspeptin analogs was calculated using the operational model of agonism as described by Kenakin [31]. Emax and EC50 values were determined for each signaling pathway (e.g., G protein activation, β-arrestin recruitment). The data were then fitted to the operational model to estimate transduction coefficients (τ). The bias factor (ΔLog(τ/KA)) was calculated by comparing the τ/KA values for each pathway relative to a reference pathway. This method quantifies signaling bias by evaluating relative efficacy and potency across pathways. Statistical significance of the observed bias was assessed to ensure the differences were not due to random variation. All calculations and analyses were performed using GraphPad Prism software (GraphPad, San Diego, CA, USA).” for “conditions.”
# kisspeptin receptor [11] = target: T1, kisspeptin receptor; assay: BRET assay, β-arrestin1 recruitment; type: cell-based; design: expressed in transfected cells; host or cells: HeLa cells, transient transfection with PEI; conditions: for Emax / EC50: HeLa cells, β-arrestin1 recruitment; for Emax: KP10 = 100%; for EC50: mean of 4 experiments
# Excerpt: as §4
# kisspeptin receptor [12] = target: T1, kisspeptin receptor; assay: BRET assay, β-arrestin2 recruitment; type: cell-based; design: expressed in transfected cells; host or cells: HeLa cells, transient transfection with PEI; conditions: for Emax / EC50: HeLa cells, β-arrestin2 recruitment; for Emax: KP10 = 100%
# Excerpt: as §4
# MCF7 cells [13] = assay: Cytotoxicity MTT assay, MCF7; type: cell-based, human; conditions: 48 h
# Description: as §1, §2
# kisspeptin receptor [14] = target: T1, kisspeptin receptor
# kisspeptin receptor [15] = target: T1, kisspeptin receptor; remark: listed apart in the source
# [16] = mean of 4 experiments, read-out: EC50(M) Gz
# [17] = mean of 4 experiments, read-out: EC50(M) β-arrestin2
# [18] = read-out: pEC50 β-arrestin2 (converted)
# T1 sequence (Q969F8 whole entry, the tested form may be a part): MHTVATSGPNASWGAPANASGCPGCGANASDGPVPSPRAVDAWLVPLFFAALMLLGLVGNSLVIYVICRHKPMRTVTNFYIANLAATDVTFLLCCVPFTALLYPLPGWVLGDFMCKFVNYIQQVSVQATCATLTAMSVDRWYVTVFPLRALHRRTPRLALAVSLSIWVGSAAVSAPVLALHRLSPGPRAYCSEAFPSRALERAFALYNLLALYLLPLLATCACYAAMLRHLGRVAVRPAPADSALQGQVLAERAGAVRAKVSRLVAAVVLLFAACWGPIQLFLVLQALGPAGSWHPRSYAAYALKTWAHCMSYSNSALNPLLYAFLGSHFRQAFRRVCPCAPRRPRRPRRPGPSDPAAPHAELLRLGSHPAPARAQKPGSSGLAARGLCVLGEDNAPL
molecule,measurement,setting,value
Ala^10-KP10: Tyr-Asn-Trp-Asn-Ser-Phe-Gly-Leu-Arg-Ala; KP10 Ala-scan analog (YNWNSFGLRA; printed: Tyr-Asn-Trp-Asn-Ser-Phe-Gly-Leu-Arg-Ala),pIC50 HeLa,HeLa cells [1],2.493
same,pIC50 PC3,PC3 cells [2],1.739
Ala^1-KP10: Ala-Asn-Trp-Asn-Ser-Phe-Gly-Leu-Arg-Phe; KP10 Ala-scan analog (ANWNSFGLRF; printed: Ala-Asn-Trp-Asn-Ser-Phe-Gly-Leu-Arg-Phe),pIC50 HEK293T,HEK293T cells,2.311
same,pIC50 HeLa,HeLa cells [1],2.483
same,pIC50 PC3,PC3 cells [2],2.475
Ala^9-KP10: Tyr-Asn-Trp-Asn-Ser-Phe-Gly-Leu-Ala-Phe; KP10 Ala-scan analog (YNWNSFGLAF; printed: Tyr-Asn-Trp-Asn-Ser-Phe-Gly-Leu-Ala-Phe),pIC50 HeLa,HeLa cells [1],2.429
same,pIC50 PC3,PC3 cells [2],2.295
CC(C)C[C@H](NC(=O)CNC(=O)[C@H](Cc1ccccc1)NC(=O)[C@H](CO)NC(=O)[C@H](C)NC(=O)[C@H](Cc1c[nH]c2ccccc12)NC(=O)[C@H](CC(N)=O)NC(=O)[C@@H](N)Cc1ccc(O)cc1)C(=O)N[C@@H](CCCNC(=N)N)C(=O)N[C@@H](Cc1ccccc1)C(N)=O [Ala^4-KP10] (H-YNWASFGLRF-NH2; N-terminus assumed),pIC50 PC3,PC3 cells [2],2.541
same,migration inhibition (wound closure),HeLa cells [3],most pronounced effects
same,migration inhibition (wound closure),MCF7 cells [4],most pronounced effects
same,migration inhibition (wound closure),PC3 cells [5],more inhibitory treatment
same,migration inhibition (wound closure),AGS cells,more inhibitory treatment
same,EC50,kisspeptin receptor [6],214 nM
same,Emax,kisspeptin receptor [6],104%
same,Emax,kisspeptin receptor [7],106%
same,EC50,kisspeptin receptor [7],447 nM
same,Emax,kisspeptin receptor [8],97.7%
same,EC50,kisspeptin receptor [8],355 nM
same,Emax,kisspeptin receptor [9],101%
same,EC50,kisspeptin receptor [9],339 nM
same,Emax,kisspeptin receptor [10],84.7%
same,EC50,kisspeptin receptor [10]; [16],1.1e-06 M
same,EC50,kisspeptin receptor [10]; read-out: pEC50 Gz (converted),9.12e-07 M
same,"Δ(logτ/KA) bias factor, Gαz pathway",kisspeptin receptor [10],−1.66
same,Emax,kisspeptin receptor [11],69.1%
same,EC50,kisspeptin receptor [11],13000 nM
same,Emax,kisspeptin receptor [12],79%
same,EC50,kisspeptin receptor [12]; [17],2.58e-06 M
same,EC50,kisspeptin receptor [12]; [18],2.51e-06 M
"CC(C)C[C@H](NC(=O)CNC(=O)[C@H](Cc1ccccc1)NC(=O)[C@H](CO)NC(=O)[C@H](CC(N)=O)NC(=O)[C@H](Cc1c[nH]c2ccccc12)NC(=O)[C@H](CC(N)=O)NC(=O)[C@@H](N)Cc1ccc(O)cc1)C(=O)N[C@@H](CCCN=C(N)N)C(=O)N[C@@H](Cc1ccccc1)C(N)=O [KP-10, kisspeptin-10, reference compound]",pIC50 HEK293T,HEK293T cells,2.489
same,pIC50 PC3,PC3 cells [2],2.678
same,EC50,kisspeptin receptor [6],13.5 nM
same,EC50,kisspeptin receptor [7],38 nM
same,EC50,kisspeptin receptor [8],33.1 nM
same,EC50,kisspeptin receptor [9],26.9 nM
same,EC50,kisspeptin receptor [10]; [16],1.63e-07 M
same,EC50,kisspeptin receptor [10]; read-out: pEC50 Gz (converted),1.35e-07 M
same,"Δ(logτ/KA) bias factor, Gαz pathway",kisspeptin receptor [10],0
same,EC50,kisspeptin receptor [12]; [18],3.72e-07 M
CC(C)C[C@H](NC(=O)CNC(=O)[C@H](Cc1ccccc1)NC(=O)[C@H](CO)NC(=O)[C@H](CC(N)=O)NC(=O)[C@H](C)NC(=O)[C@H](CC(N)=O)NC(=O)[C@@H](N)Cc1ccc(O)cc1)C(=O)N[C@@H](CCCNC(=N)N)C(=O)N[C@@H](Cc1ccccc1)C(N)=O [Ala^3-KP10] (H-YNANSFGLRF-NH2; N-terminus assumed),pIC50 MCF7,MCF7 cells [13],2.624
same,EC50,kisspeptin receptor [6],85.1 nM
same,Emax,kisspeptin receptor [6],107%
same,Fc Gq,"kisspeptin receptor [6]; fold change of EC50 relative to KP10, Gq pathway",5.76
same,Emax,kisspeptin receptor [7],102%
same,EC50,kisspeptin receptor [7],209 nM
same,Fc G11,"kisspeptin receptor [7]; fold change of EC50 relative to KP10, G11 pathway",4.65
same,Emax,kisspeptin receptor [8],100%
same,EC50,kisspeptin receptor [8],166 nM
same,Fc G14,"kisspeptin receptor [8]; fold change of EC50 relative to KP10, G14 pathway",4.28
same,Emax,kisspeptin receptor [9],99.5%
same,EC50,kisspeptin receptor [9],135 nM
same,Fc G15,"kisspeptin receptor [9]; fold change of EC50 relative to KP10, G15 pathway",4.92
same,Emax,kisspeptin receptor [10],94%
same,EC50,kisspeptin receptor [10]; [16],6.46e-07 M
same,EC50,kisspeptin receptor [10]; read-out: pEC50 Gz (converted),5.75e-07 M
same,Fc Gz,"kisspeptin receptor [10]; fold change of EC50 relative to KP10, Gz pathway",3.96
same,"Δ(logτ/KA) bias factor, Gαz pathway",kisspeptin receptor [10],−0.7
same,Emax,kisspeptin receptor [11],69%
same,EC50,kisspeptin receptor [11],1190 nM
same,Fc β-arrestin1,"kisspeptin receptor [11]; fold change of EC50 relative to KP10, β-arrestin1",2.01
same,Emax,kisspeptin receptor [12],63.9%
same,EC50,kisspeptin receptor [12]; [17],1.43e-06 M
same,EC50,kisspeptin receptor [12]; [18],1e-06 M
same,Fc β-arrestin2,"kisspeptin receptor [12]; fold change of EC50 relative to KP10, β-arrestin2",3.82
YNANSFGLRF [Ala^3-KP10],"EC50 of Gαz pathway activation, effector-RlucII / rGFP-CAAX BRET biosensor in transfected HeLa cells, 10 min stimulation",kisspeptin receptor [14],646 nM
same,"EC50 of β-arrestin1 recruitment, BRET biosensor in transfected HeLa cells",kisspeptin receptor [15],1190 nM
same,"EC50 of β-arrestin2 recruitment, BRET biosensor in transfected HeLa cells",kisspeptin receptor [15],1430 nM
YNWASFGLRF [Ala^4-KP10],"EC50 of Gαz pathway activation, effector-RlucII / rGFP-CAAX BRET biosensor in transfected HeLa cells, 10 min stimulation",kisspeptin receptor [14],1100 nM
same,"EC50 of β-arrestin1 recruitment, BRET biosensor in transfected HeLa cells",kisspeptin receptor [15],13000 nM
same,"EC50 of β-arrestin2 recruitment, BRET biosensor in transfected HeLa cells",kisspeptin receptor [15],2580 nM
